SMILES strings stand for the structures.

This data set is described as follows: gradient 5% acetonitrile 3 min, to 50% in 2 min, to 85% in 15 min, held 3 min, 100 µL/min. The conditions noted are these: column: Zorbax Extend-C18 2.1 x 50 mm; eluents: water / acetonitrile, 0.1% formic acid. The procedure, abridged:
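Data were gathered over 3 months by HPLC coupled to a quadrupole time-of-flight mass spectrometer, operated in positive and negative ionization mode. Mixtures of ~100 pure standards ran on a Zorbax Extend-C18 column (2.1 × 50 mm, 1.8 μm) at 100 μL/min, with water and acetonitrile each containing 0.1% formic acid and dead and dwell volumes of 40 μL and 900 μL. Retention time was read from adduct peaks picked by computer and checked manually.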
In turn, `CC(C)NC(=O)CN1CCN(c2ncc(C(=O)NCc3ccccc3)c(N)n2)CC1` displayed an RP-LC retention time of 593 s.
For the compound `Cc1csc(-c2ccc(N3CCN(C(=O)c4cc(F)ccc4Cl)CC3)nc2)n1`, the RP-LC retention time worked out at 910 s.
`O=C(Cn1nc(N2CCOCC2)c2ccccc2c1=O)Nc1ccc(F)cc1Cl` showed an RP-LC retention time of 816 s.
For `CCCn1c(-c2cccc(C(=O)NC(C)c3ccccc3)c2)nc2cccnc21` (centres undefined), the RP-LC retention time is 824 s.
As to `COc1ccccc1NC(=O)C1CCN(S(=O)(=O)c2cc(C(=O)N3CCCC3)n(C)c2)CC1`, the RP-LC retention time amounted to 758 s.
In turn, `CCN1CCN(c2ccc(-c3nc(-c4ccccc4)no3)cn2)CC1` registered an RP-LC retention time of 675 s.
`COc1ccc(Nc2c(C(=O)N3CCC(C)CC3)cnc3nc(C)ccc23)c(OC)c1`: the RP-LC retention time was 662 s.
Take `COc1cc(NS(=O)(=O)c2ccc(N)cc2)nc(OC)n1`: the RP-LC retention time is 680 s.
In turn, `CCOc1ccc(-n2nnnc2CNS(=O)(=O)c2cccc(C(F)(F)F)c2)cc1` showed an RP-LC retention time of 892 s.
With `COCCCNC(=O)C1CCN(c2cncnc2N(C)C)CC1`, the RP-LC retention time was determined as 568 s.
Consider `CCc1noc2nc(CCC(=O)NCCCN3CCCC(C)C3)nc(N3CCCCC3)c12` (centres undefined), for which the RP-LC retention time was found to be 673 s.
The compound `Cc1ccc(-n2nc(C)c3sc(N4CCCC(C(=O)NCc5ccc(F)cc5Cl)C4)nc32)cc1` (centres undefined) yielded an RP-LC retention time of 1220 s.
`CCc1nc2ccc(-c3noc(-c4ccc(C#N)cc4)n3)cc2n1CC` came in with an RP-LC retention time of 716 s.
The result for `COc1ccc(S(=O)(=O)N2[C@H]3CC[C@@H]2c2cnc(C)nc2C3)cc1` reads 693 s; that for `O=C(NCc1cc(F)ccc1F)C1CCN(c2cnc(N3CCCC3)nc2)CC1`, 667 s; that for `CN(C1CCC1)C1CCc2nn(Cc3ccccc3)c(=O)n2CC1` (centres undefined), 590 s.
In the case of `COc1cccc(NC(=O)C2CC(=O)N(c3ccc4c(c3)CCN4C(=O)C3CC3)C2)c1` (centres undefined), the RP-LC retention time was determined as 655 s.
`Cc1cccc(NC(=O)N2CCC3(C2)C(=O)N(C)c2ccccc23)c1` (centres undefined) registered an RP-LC retention time of 808 s.
Take `O=C(N[C@@H]1CN(c2ccncn2)C[C@H]1CO)C1CCCC1`: the RP-LC retention time worked out at 550 s.
As for `COc1cc(NC(=O)Cn2cc(-c3nnc(C)o3)c3ccccc32)cc(OC)c1`, the RP-LC retention time was found to be 809 s.
`O=C(NCC1CCS(=O)(=O)C1)c1cc(-c2ccc(F)cc2)n[nH]1` (centres undefined) registered an RP-LC retention time of 643 s.
`CCOCCCNC(=O)CN1C(=O)C2CCCCN2c2ccc(C(=O)N3CCCC3)cc21` (centres undefined): the RP-LC retention time was 694 s.
Compound `O=C(C1CC1)N1CCCn2nc(-c3ccccc3)cc2C1` displayed an RP-LC retention time of 739 s.
The result for `O=C(c1ccncc1)N1CCCCC1c1nc(-c2ccncc2)no1` (centres undefined) reads 689 s.
`CN(C)S(=O)(=O)c1ccc2c(c1)Cc1cc(S(=O)(=O)N(C)C)ccc1-2` registered an RP-LC retention time of 820 s.
For `CC[C@@H](Nc1c(Nc2cccc(C(=O)N(C)C)c2O)c(=O)c1=O)c1cc(C(C)C)co1`, the RP-LC retention time was 772 s.
`O=C(c1c(F)cccc1Cl)N1CCc2nc(-c3ccc(F)cc3)ncc2C1`: the RP-LC retention time turned out to be 1020 s.
Compound `CCCn1cc(S(=O)(=O)NCc2cccc(F)c2)c2cccnc21` had an RP-LC retention time of 936 s.
`COc1ccc(OC)c(CNC(=O)C2CCCN(c3ncnc4c3oc3ccccc34)C2)c1` (centres undefined) showed an RP-LC retention time of 761 s.
The result for `COc1ccc(S(=O)(=O)N2C[C@@H]3C[C@H](NC(=O)c4ccccc4)[C@H]2C3)cc1Cl` reads 907 s; that for `Cc1ccc(-n2c(=O)c3sccc3n(Cc3nc(-c4cccc(C(F)(F)F)c4)no3)c2=O)cc1`, 1100 s.
In turn, `c1ccc(-c2nc3nc4c(c(Nc5ccc6c(c5)OCCO6)n3n2)CCC4)cc1` displayed an RP-LC retention time of 961 s.
Turning to `CCCN(CC1CCOC1)C(=O)Nc1cc(F)c(F)c(F)c1` (centres undefined), the RP-LC retention time turned out to be 844 s.
As to `O=C(Nc1cccc(C(F)(F)F)c1)N1CCN(c2cnn3c(C4CC4)nnc3c2)CC1`, the RP-LC retention time was 629 s.
`N#Cc1cc2c(nc1SCC(=O)Nc1nc(-c3ccccc3)cs1)CCCC2=O` had an RP-LC retention time of 1020 s.
With `Cc1ccc2nc(C3CN(C(=O)COc4ccc(Cl)cc4Cl)C3)[nH]c2c1`, the RP-LC retention time is 610 s.
For `Cc1ccc2ncn3c(=O)n(CC(=O)Nc4ccc(C(C)C)cc4)nc3c2c1`, the RP-LC retention time turned out to be 754 s.
In turn, `Cc1c(CNCCN(C)C)c(C(=O)O)c(C)n1Cc1ccccc1F` had an RP-LC retention time of 591 s.
On to `Cc1cccc(N2CC(C(=O)N3CCCCCC3)CC2=O)c1` (centres undefined), for which the RP-LC retention time is 802 s.
For the compound `C=CCNC(=O)c1cc(C)nc2c(C)cc(C)cc12`, the RP-LC retention time amounted to 644 s.
In turn, `Cc1ccc2nc(CN3CCN(C(=O)Nc4ccc5c(c4)OCO5)CC3)oc2c1` gave an RP-LC retention time of 684 s.
The compound `CC(C)(C)c1ccc(C(=O)Nc2ccc3c(c2)C(=O)NC3=O)cc1` showed an RP-LC retention time of 853 s.
Turning to `CC(C)CCN1CCC(N2CCN(C(=O)CC(C)C)CC2)C1=O` (centres undefined), the RP-LC retention time came out at 579 s.
The compound `Cc1ccc(NC(=O)Cn2c(=O)n(-c3ccccc3)c(=O)c3c2cc(C)n3C)c(Cl)c1` displayed an RP-LC retention time of 927 s.
Next, `Cc1nc(-c2ccc(N3CCN(C(=O)c4ccc(F)c(F)c4)CC3)nc2)sc1C`: 976 s; `COc1cccc(OC)c1CN1CC(n2cnnc2-c2cccnc2)C1`: 548 s.
In the case of `CC(C)N1C(=O)c2cccnc2Sc2cc(NC(=O)c3ccc(Cl)s3)ccc21`, the RP-LC retention time came to 975 s.
With `Cc1nn(C)c2nc(OCC(=O)Nc3ccccc3Cl)cc(C(F)(F)F)c12`, the RP-LC retention time is 1130 s.
In the case of `CCC(CC)C(=O)Nc1nc(-c2ccc3c(c2)N(CC)C(=O)CO3)c(C)s1`, the RP-LC retention time worked out at 1270 s.
The compound `O=C(CCCCCN1C(=O)c2cccc3cccc(c23)C1=O)NO` showed an RP-LC retention time of 694 s.
`Cc1cc(C)n(CCN2CCN(C(=O)C3CCC3)CC2)n1` showed an RP-LC retention time of 546 s.
`Cn1cc(C(=O)Nc2ccc3c(c2)CCC3)c(S(=O)(=O)N2CCSCC2)n1` gave an RP-LC retention time of 1040 s.
On to `CCOc1ccccc1NC(=O)CN1CCN(Cc2ccc(C)cc2)C(=O)C1=O`, for which the RP-LC retention time worked out at 848 s.
Turning to `Cn1cnnc1SCCNC(=O)C1CN(c2nc3ccccc3s2)C1`, the RP-LC retention time was 573 s.
With `CCOC(=O)CNC(=O)NC(C(=O)N1CCc2ccccc21)C(C)C` (centres undefined), the RP-LC retention time came out at 783 s.
`CC(C)c1nccn1C1CN(C(=O)COc2ccc(F)cc2)C1`: the RP-LC retention time is 573 s.
Next, `Cc1ccc(-c2cc3c(=O)n(CC(=O)N4CCCc5ccccc54)ccn3n2)cc1`: 643 s.
`Cc1cc(C(=O)Nc2nnc(Cc3ccc4c(c3)OCO4)o2)c(C)o1`: the RP-LC retention time stood at 722 s.
On to `Cn1cc(C2=CCN(C(=O)NC3CCCC3)CC2)c2cccnc21`, for which the RP-LC retention time was 754 s.
The result for `COc1cccc(NC(=O)Cn2c(N)nc(C)cc2=O)c1` reads 581 s; that for `C/C(=C\c1csc(C)n1)[C@@H]1C[C@@H]2O[C@]2(C)CCC[C@H](C)[C@H](O)[C@@H](C)C(=O)C(C)(C)[C@@H](O)CC(=O)N1`, 707 s.
Consider `CCCCC(=O)Nc1ccc(SCc2nnc(-c3ccc4c(c3)OCO4)o2)cc1`, for which the RP-LC retention time worked out at 948 s.
`CCOc1ccc(NC(=O)N2CCC(n3c(-c4ccco4)nc4cccnc43)C2)cc1` (centres undefined) displayed an RP-LC retention time of 759 s.
In the case of `Cc1ccc(C(O)Cn2ccn3nc(-c4ccc(F)cc4)cc3c2=O)cc1` (centres undefined), the RP-LC retention time is 966 s.
The compound `Cc1ccc(CNC(=O)C2CCCN(c3nnc4c(Cl)cccn34)C2)o1` (centres undefined) returned an RP-LC retention time of 704 s.
Turning to `O=C(C1CC1)N1CCC(c2noc(-c3cccnc3)n2)C1` (centres undefined), the RP-LC retention time was 631 s.
`CC(C)(C)C(=O)Nc1ccc(N2CCN(CC(=O)N3CCCC3)CC2)cc1C(=O)O` had an RP-LC retention time of 573 s.
For `COCCNC(=O)C1CCN(C(=O)Nc2ccc(NC(=O)Nc3ccccc3)cc2)CC1`, the RP-LC retention time turned out to be 678 s.
Next, `O=S(=O)(c1ccc(Cl)s1)N1CC(c2nc(-c3ncccn3)no2)C1`: 725 s; `O=C(NCc1cccc(C(F)(F)F)c1)C1CCCN(c2cnc3nccnc3c2)C1` (centres undefined): 754 s.
Consider `Cc1ccc(N2C(=O)C3N=NN(Cc4nc(-c5ccc(OC(C)C)cc5)no4)C3C2=O)cc1F` (centres undefined), for which the RP-LC retention time was 1140 s.
In turn, `O=C(Nc1ccc(S(=O)(=O)N2CCCCC2c2cccnc2)cc1)C1CCCCC1` (centres undefined) came in with an RP-LC retention time of 654 s.
On to `CCc1noc(NC(C)=O)c1-c1ccc(C)c(S(=O)(=O)NCc2ccco2)c1`, for which the RP-LC retention time is 766 s.
The result for `COCCN1C(=O)[C@H]2CN(Cc3cccc(Cl)c3F)C[C@H]2C1=O` reads 685 s; that for `COc1ccc(OCC(=O)Nc2c(C(=O)N3CCN(c4ccccn4)CC3)oc3ccccc23)cc1`, 741 s.
For the compound `Cc1nn(C)c(C)c1S(=O)(=O)N1[C@H]2CC[C@@H]1c1cnc(-c3ccccc3)nc1C2`, the RP-LC retention time was 865 s.
With `CCNC(=O)C1N(C(C)C)C(=O)C12CCCCC2` (centres undefined), the RP-LC retention time is 630 s.
In turn, `OC(c1ccccc1)(c1ccccc1)C1CN2CCC1CC2` (centres undefined) had an RP-LC retention time of 733 s.
Turning to `CN(Cc1ccccc1)c1ccc(-c2noc(CN3CCCC3)n2)cn1`, the RP-LC retention time was 675 s.
